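Cells were grown in 96-well plates and exposed to each compound for 48 hours at five concentrations; endpoints were interpolated linearly between bracketing concentrations, or set to the highest concentration if not reached. GI50: concentration for 50% inhibition of growth. At the TGI there is no net growth.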
Legend:
Test in all cases: growth of human tumour cells (NCI), 48 h
[1] = test system: NCI-H226 lung
[2] = test system: NCI-H23 lung
[3] = test system: NCI-H460 lung
[4] = test system: NCI-H522 lung
[5] = test system: NCI/ADR-RES ovarian
[6] = test system: OVCAR-4 ovarian
[7] = test system: OVCAR-5 ovarian
[8] = test system: OVCAR-8 ovarian
[9] = test system: PC-3 prostate
[10] = test system: RPMI-8226 leukemia
[11] = test system: RXF 393 renal
[12] = test system: SF-268 CNS
[13] = test system: SF-295 CNS
[14] = test system: SF-539 CNS
[15] = test system: SK-MEL-2 melanoma
[16] = test system: SK-MEL-28 melanoma
[17] = test system: SK-MEL-5 melanoma
[18] = test system: SK-OV-3 ovarian
[19] = test system: SN12C renal
[20] = test system: SNB-19 CNS
[21] = test system: SNB-75 CNS
[22] = test system: SW-620 colon
[23] = test system: T-47D breast
[24] = test system: TK-10 renal
[25] = test system: U251 CNS
[26] = test system: UACC-257 melanoma
[27] = test system: UACC-62 melanoma
[28] = test system: UO-31 renal

For `C#Cc1nc(C(=O)NCCC(=O)Nc2ccc(NC(=O)c3ccc(/C=C/C(=O)c4nccn4C)cc3)cc2)cs1`, which TGI [1] is on record?
Its TGI is 4.02 µM.

What about the GI50 [2] of the same compound?
Its GI50 is 1.22 µM.

What about the TGI [2] of the same compound?
The TGI was 3.41 µM.

What about the GI50 [3] of the same compound?
Its GI50 is 1.57 µM.

And the TGI [3]?
Its TGI is 4.6 µM.

And the GI50 [4]?
Its GI50 is 1.04 µM.

What about the TGI [4] of the same compound?
Its TGI is 2.27 µM.

And the GI50 [5]?
Its GI50 is 3.27 µM.

And the TGI [5]?
The TGI was over 50 µM.

What about the GI50 [6] of the same compound?
Its GI50 is 24.9 µM.

And the TGI [6]?
The TGI was over 50 µM.

What about the GI50 [7] of the same compound?
The GI50 was 1.58 µM.

What about the TGI [7] of the same compound?
The TGI was 4.94 µM.

What about the GI50 [8] of the same compound?
Its GI50 is 1.75 µM.

What about the TGI [8] of the same compound?
Its TGI is over 50 µM.

And the GI50 [9]?
Its GI50 is 1.38 µM.

What about the TGI [9] of the same compound?
The TGI was 3.88 µM.

What about the GI50 [10] of the same compound?
Its GI50 is 0.934 µM.

What about the TGI [10] of the same compound?
Its TGI is 2.2 µM.

And the GI50 [11]?
The GI50 was 1.04 µM.

And the TGI [11]?
The TGI was 2.75 µM.

What about the GI50 [12] of the same compound?
Its GI50 is 1.72 µM.

What about the TGI [12] of the same compound?
Its TGI is 13.3 µM.

What about the GI50 [13] of the same compound?
The GI50 was 2.37 µM.

What about the TGI [13] of the same compound?
The TGI was 8.43 µM.

And the GI50 [14]?
Its GI50 is 0.911 µM.

What about the TGI [14] of the same compound?
Its TGI is 1.67 µM.

And the GI50 [15]?
Its GI50 is 35.8 µM.

And the TGI [15]?
The TGI was over 50 µM.

And the GI50 [16]?
Its GI50 is 7 µM.

And the TGI [16]?
Its TGI is 29.9 µM.

And the GI50 [17]?
Its GI50 is 3.13 µM.

What about the TGI [17] of the same compound?
The TGI was 11.1 µM.

And the GI50 [18]?
The GI50 was 11.5 µM.

And the TGI [18]?
Its TGI is over 50 µM.

What about the GI50 [19] of the same compound?
The GI50 was 1.3 µM.

What about the TGI [19] of the same compound?
The TGI was 4.49 µM.

What about the GI50 [20] of the same compound?
Its GI50 is 1.83 µM.

What about the TGI [20] of the same compound?
Its TGI is 7.4 µM.

What about the GI50 [21] of the same compound?
The GI50 was 1.43 µM.

And the TGI [21]?
The TGI was 9.71 µM.

What about the GI50 [22] of the same compound?
Its GI50 is 1.23 µM.

And the TGI [22]?
Its TGI is 2.83 µM.

And the GI50 [23]?
Its GI50 is 2.22 µM.

What about the TGI [23] of the same compound?
The TGI was over 50 µM.

And the GI50 [24]?
The GI50 was 8.94 µM.

What about the TGI [24] of the same compound?
The TGI was over 50 µM.

And the GI50 [25]?
The GI50 was 0.886 µM.

What about the TGI [25] of the same compound?
The TGI was 2.04 µM.

And the GI50 [26]?
The GI50 was 18.7 µM.

And the TGI [26]?
The TGI was over 50 µM.

And the GI50 [27]?
Its GI50 is 3.01 µM.

And the TGI [27]?
The TGI was 10.9 µM.

And the GI50 [28]?
The GI50 was 0.763 µM.

What about the TGI [28] of the same compound?
Its TGI is 1.49 µM.
